Key:
[1] = system: K562; assay: Antiproliferative activity against human K562 cells assessed as inhibition of cell proliferation measured after 72 hrs by MTT assay; format: functional, cell-based; conditions: K562, 72 h
[2] = Selectivity index, ratio of IC50 for human HaCaT cells to IC50 for human K562 cells; format: toxicity; conditions: HaCaT cells and K562 cells, read-out: Ratio IC50
[3] = Antiproliferative activity against J774.2 cells assessed as inhibition of cell proliferation measured after 72 hrs by MTT assay; format: toxicity, cell-based; conditions: mouse
[4] = Antiproliferative activity against NIH3T3 cells assessed as inhibition of cell proliferation measured after 72 hrs by MTT assay; format: toxicity, cell-based; conditions: mouse
[5] = Antiproliferative activity against human HaCaT cells assessed as inhibition of cell proliferation measured after 72 hrs by MTT assay; format: toxicity, cell-based
[6] = system: K562; assay: Anticancer activity against human K562 cells assessed as cell growth at 10^-5 M incubated for 48 hrs by SRB assay relative to control; format: functional; conditions: K562, 48 h, dose 1 10^-5M, read-out: Activity
[7] = system: CAKI-1; assay: Anticancer activity against human CAKI-1 cells assessed as cell growth at 10^-5 M incubated for 48 hrs by SRB assay relative to control; format: functional; conditions: CAKI-1, 48 h, dose 1 10^-5M, read-out: Activity
[8] = system: NCI-H460; assay: Anticancer activity against human NCI-H460 cells assessed as cell growth at 10^-5 M incubated for 48 hrs by SRB assay relative to control; format: functional; conditions: NCI-H460, 48 h, dose 1 10^-5M, read-out: Activity
[9] = system: HCT-15; assay: Anticancer activity against human HCT-15 cells assessed as cell growth at 10^-5 M incubated for 48 hrs by SRB assay relative to control; format: functional; conditions: HCT-15, 48 h, dose 1 10^-5M, read-out: Activity
[10] = system: ACHN; assay: Anticancer activity against human ACHN cells assessed as cell growth at 10^-5 M incubated for 48 hrs by SRB assay relative to control; format: functional; conditions: dose 1 10^-5M, read-out: Activity
[11] = system: M14; assay: Anticancer activity against human M14 cells assessed as cell growth at 10^-5 M incubated for 48 hrs by SRB assay relative to control; format: functional; conditions: M14, 48 h, dose 1 10^-5M, read-out: Activity
[12] = system: UACC-62; assay: Anticancer activity against human UACC-62 cells assessed as cell growth at 10^-5 M incubated for 48 hrs by SRB assay relative to control; format: functional; conditions: UACC-62, 48 h, dose 1 10^-5M, read-out: Activity
[13] = system: KM12; assay: Anticancer activity against human KM12 cells assessed as cell growth at 10^-5 M incubated for 48 hrs by SRB assay relative to control; format: functional; conditions: KM12, 48 h, dose 1 10^-5M, read-out: Activity
[14] = system: MDA-MB-435; assay: Anticancer activity against human MDA-MB-435 cells assessed as cell growth at 10^-5 M incubated for 48 hrs by SRB assay relative to control; format: functional; conditions: MDA-MB-435, 48 h, dose 1 10^-5M, read-out: Activity
[15] = system: MDA-MB-468; assay: Anticancer activity against human MDA-MB-468 cells assessed as cell growth at 10^-5 M incubated for 48 hrs by SRB assay relative to control; format: functional; conditions: MDA-MB-468, 48 h, dose 1 10^-5M, read-out: Activity
[16] = system: LOX IMVI; assay: Anticancer activity against human LOX IMVI cells assessed as cell growth at 10^-5 M incubated for 48 hrs by SRB assay relative to control; format: functional; conditions: dose 1 10^-5M, read-out: Activity
[17] = Selectivity index, ratio of IC50 for […] to IC50 for human K562 cells; format: functional
[18] = system: MCF7; assay: Anticancer activity against human MCF7 cells assessed as cell growth at 10^-5 M incubated for 48 hrs by SRB assay relative to control; format: functional; conditions: MCF7, 48 h, dose 1 10^-5M, read-out: Activity
[19] = target: NAD-dependent protein deacetylase sirtuin-2 (Homo sapiens, UniProt Q8IXJ6); assay: Inhibition of N-terminal His6-tagged human Sirt2 (25 to 389 residues) using ZMAL as substrate incubated for 4 hrs by fluorescence based assay
[20] = system: T47D; assay: Antiproliferative activity against human T47D cells assessed as inhibition of cell proliferation measured after 48 hrs by SRB assay; format: functional, cell-based
[21] = system: SF-295; assay: Anticancer activity against human SF-295 cells assessed as cell growth at 10^-5 M incubated for 48 hrs by SRB assay relative to control; format: functional; conditions: SF-295, 48 h, dose 1 10^-5M, read-out: Activity
[22] = system: SK-MEL-5; assay: Anticancer activity against human SK-MEL-5 cells assessed as cell growth at 10^-5 M incubated for 48 hrs by SRB assay relative to control; format: functional; conditions: SK-MEL-5, 48 h, dose 1 10^-5M, read-out: Activity
[23] = system: K562; assay: Inhibition of cell growth in human K562 cells incubated for 48 hrs by SRB assay; format: functional, cell-based; conditions: K562, 48 h
[24] = system: HCT-15; assay: Inhibition of cell growth in human HCT-15 cells incubated for 48 hrs by SRB assay; format: functional, cell-based; conditions: HCT-15, 48 h
[25] = system: HCC 2998; assay: Anticancer activity against human HCC 2998 cells assessed as cell growth at 10^-5 M incubated for 48 hrs by SRB assay relative to control; format: functional; conditions: HCC 2998, 48 h, dose 1 10^-5M, read-out: Activity
[26] = system: M14; assay: Inhibition of cell growth in human M14 cells incubated for 48 hrs by SRB assay; format: functional, cell-based; conditions: M14, 48 h
[27] = system: SW-620; assay: Inhibition of cell growth in human SW-620 cells incubated for 48 hrs by SRB assay; format: functional, cell-based; conditions: SW-620, 48 h
[28] = system: UACC-62; assay: Inhibition of cell growth in human UACC-62 cells incubated for 48 hrs by SRB assay; format: functional, cell-based; conditions: UACC-62, 48 h
[29] = system: A549; assay: Anticancer activity against human A549 cells assessed as cell growth at 10^-5 M incubated for 48 hrs by SRB assay relative to control; format: functional; conditions: A549, 48 h, dose 1 10^-5M, read-out: Activity
[30] = system: NCI/ADR-RES; assay: Anticancer activity against human NCI/ADR-RES cells assessed as cell growth at 10^-5 M incubated for 48 hrs by SRB assay relative to control; format: functional; conditions: dose 1 10^-5M, read-out: Activity
[31] = system: MOLT-4; assay: Anticancer activity against human MOLT-4 cells assessed as cell growth at 10^-5 M incubated for 48 hrs by SRB assay relative to control; format: functional; conditions: MOLT-4, 48 h, dose 1 10^-5M, read-out: Activity
[32] = system: OVCAR-4; assay: Anticancer activity against human OVCAR-4 cells assessed as cell growth at 10^-5 M incubated for 48 hrs by SRB assay relative to control; format: functional; conditions: OVCAR-4, 48 h, dose 1 10^-5M, read-out: Activity

NAD-dependent protein deacetylase sirtuin-2, sequence (Q8IXJ6 whole entry, the tested form may be a part): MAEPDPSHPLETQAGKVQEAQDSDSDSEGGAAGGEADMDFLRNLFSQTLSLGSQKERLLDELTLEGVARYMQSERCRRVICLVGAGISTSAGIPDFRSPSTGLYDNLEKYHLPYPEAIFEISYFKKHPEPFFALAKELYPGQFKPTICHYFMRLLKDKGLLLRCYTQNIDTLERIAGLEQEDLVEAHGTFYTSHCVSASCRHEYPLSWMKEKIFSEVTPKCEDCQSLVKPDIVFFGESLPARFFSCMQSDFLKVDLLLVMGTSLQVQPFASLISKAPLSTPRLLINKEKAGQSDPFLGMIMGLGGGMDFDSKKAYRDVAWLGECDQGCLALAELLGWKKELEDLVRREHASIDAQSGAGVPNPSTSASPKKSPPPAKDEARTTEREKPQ

Q: Which IC50 [1] does the source give for `O=C(Nc1ncc(Cc2ccccc2)s1)c1ccc(-n2cnnn2)cc1` here?
A: 8.3 µM

Q: What about the selectivity ratio [2] of the same molecule?
A: 4

Q: What about the IC50 at 72 h [3] of the same molecule?
A: 48.1 µM

Q: What about the IC50 at 72 h [4] of the same molecule?
A: > 100 µM

Q: What about the IC50 at 72 h [5] of the same molecule?
A: 33 µM

Q: Which results are given for `Cc1cccc(Cc2cnc(NC(=O)c3ccc(-n4cnnn4)cc3)s2)c1`?
A: growth at 10 µM [6]: 19.2%; growth at 10 µM [7]: 35.2%; growth at 10 µM [8]: 25.8%; growth at 10 µM [9]: 34.6%; IC50 [1]: 20.1 µM; growth at 10 µM [10]: 30.7%; growth at 10 µM [11]: 33.8%; IC50 at 72 h [3]: 43.2 µM; growth at 10 µM [12]: 12%; IC50 at 72 h [4]: > 100 µM; growth at 10 µM [13]: 30.2%; growth at 10 µM [14]: 27.7%; growth at 10 µM [15]: 34.2%; growth at 10 µM [16]: 30.1%; Ratio IC50 [17]: 2.1; growth at 10 µM [18]: 30.5%; IC50 at 72 h [5]: > 100 µM

Q: Which IC50 [19] does the source give for `COCCn1cc(COc2cccc(Cc3cnc(NC(=O)CSc4nc(C)cc(C)n4)s3)c2)nn1` here?
A: 0.118 µM

Q: What does the source list for `Cc1cccc(Cc2cnc(NC(=O)c3cccc(-n4cnnn4)c3)s2)c1`?
A: IC50 [1]: > 100 µM; IC50 at 72 h [3]: 52.8 µM; IC50 at 72 h [4]: > 100 µM; IC50 at 72 h [5]: > 100 µM

Q: What does the source list for `Cc1ccc(Cc2cnc(NC(=O)c3ccc(-n4cnnn4)cc3)s2)cc1`?
A: growth at 10 µM [6]: 22.9%; growth at 10 µM [7]: 39.1%; IC50 [1]: 8 µM; growth at 10 µM [10]: 39.5%; selectivity ratio [2]: 6.6; IC50 at 72 h [3]: 59.8 µM; growth at 10 µM [12]: 20.3%; IC50 at 72 h [4]: > 100 µM; growth at 10 µM [16]: 39.4%; IC50 at 72 h [5]: 52.6 µM

Q: With `O=C(Nc1ncc(Cc2cccc(Cl)c2Cl)s1)c1cc2ccccc2o1` as the molecule, how does the IC50 [20] read?
A: 0.0255 µM

Q: For `O=C(/C=C/c1ccc(-n2cnnn2)cc1)Nc1ncc(Cc2ccccc2)s1`, which IC50 [1] is on record?
A: 1.05 µM

Q: What about the IC50 at 72 h [3] of the same molecule?
A: 37.2 µM

Q: And the IC50 at 72 h [4]?
A: > 100 µM

Q: What about the “Ratio IC50” value [17] of the same molecule?
A: 35.5

Q: What about the IC50 at 72 h [5] of the same molecule?
A: 50.4 µM

Q: With `O=C(Nc1ncc(Cc2cc(Cl)ccc2Cl)s1)c1ccc(-n2cnnn2)cc1` as the molecule, how does the growth at 10 µM [6] read?
A: 22.8%

Q: And the growth at 10 µM [7]?
A: 29%

Q: And the growth at 10 µM [21]?
A: 30.9%

Q: And the growth at 10 µM [8]?
A: 33%

Q: And the growth at 10 µM [22]?
A: 22.4%

Q: What about the IC50 [1] of the same molecule?
A: 7.57 µM

Q: And the IC50 [23]?
A: 0.577 µM

Q: What about the IC50 [24] of the same molecule?
A: 0.894 µM

Q: What about the growth at 10 µM [11] of the same molecule?
A: 24.6%

Q: And the growth at 10 µM [25]?
A: 22.7%

Q: And the IC50 at 72 h [3]?
A: 34.7 µM

Q: And the growth at 10 µM [12]?
A: 8.26%

Q: What about the IC50 at 72 h [4] of the same molecule?
A: > 100 µM

Q: What about the IC50 [26] of the same molecule?
A: 0.696 µM

Q: What about the IC50 [27] of the same molecule?
A: 0.508 µM

Q: And the growth at 10 µM [16]?
A: 22.6%

Q: What about the “Ratio IC50” value [17] of the same molecule?
A: 4.6

Q: And the IC50 at 72 h [5]?
A: > 100 µM

Q: What about the IC50 [28] of the same molecule?
A: 0.364 µM

Q: Which growth at 10 µM [6] does the source give for `O=C(Nc1ncc(Cc2cccc(C(F)(F)F)c2)s1)c1ccc(-n2cnnn2)cc1` here?
A: 21%

Q: And the growth at 10 µM [29]?
A: 34.4%

Q: What about the growth at 10 µM [7] of the same molecule?
A: 30.1%

Q: And the growth at 10 µM [21]?
A: 32.2%

Q: And the growth at 10 µM [8]?
A: 30.5%

Q: What about the growth at 10 µM [9] of the same molecule?
A: 38.7%

Q: What about the growth at 10 µM [22] of the same molecule?
A: 37.8%

Q: What about the IC50 [1] of the same molecule?
A: 23.7 µM

Q: And the growth at 10 µM [30]?
A: 35.9%

Q: And the growth at 10 µM [10]?
A: 32%

Q: And the growth at 10 µM [31]?
A: 39.4%

Q: And the IC50 at 72 h [3]?
A: 43.2 µM

Q: And the growth at 10 µM [12]?
A: 19.8%

Q: What about the growth at 10 µM [32] of the same molecule?
A: 33.6%

Q: And the IC50 at 72 h [4]?
A: > 100 µM

Q: And the growth at 10 µM [13]?
A: 28.8%

Q: What about the growth at 10 µM [14] of the same molecule?
A: 24%

Q: And the growth at 10 µM [15]?
A: 16.7%

Q: And the “Ratio IC50” value [17]?
A: 1.8

Q: What about the growth at 10 µM [18] of the same molecule?
A: 28.7%

Q: What about the IC50 at 72 h [5] of the same molecule?
A: > 100 µM
